Laboratory results reported in patent USRE39708E1, “Estrogen receptor modulators” (Chiron Corporation, priority 1998, dated 2007).

System: MCF-7 cells
Experiment: MCF-7 cell proliferation assay (BrdU incorporation)
Type: cell-based
Conditions: MCF-7 proliferation, 24 hours, in the absence of estradiol or in the presence of 1 nM estradiol
Description: MCF-7 cells are a common line of breast cancer cells used to determine in vitro estrogen receptor agonist/antagonist activity (MacGregor and Jordan 1998). The effect of a test compound on the proliferation of MCF-7 cells, as measured by the incorporation of 5-bromo-2′-deoxyuridine (“BrdU”) in a chemiluminescent assay format, can be used to determine the relative agonist/antagonist activity of the test compound. MCF-7 cells (ATCC HTB-22) are mainatined in log-phase culture. The cells are plated and incubated in phenol-free medium to avoid external sources of iS estrogenic stimulus (MacGregor and Jordan 1998). The test compound is added at varying concentrations to determine an IC50, for the compound. […]
This assay determines the estrogen agonist/antagonist activity of a test compound by the effect of the test compound on the proliferation of MCF-7 cells as measured by the incorporation of 5-bromo-2′-deoxyuridine (“BrdU”) in a chemiluminescent assay format. […]
The cells were cultured in the presence of test compounds for 24 hours at 37° C. and under a 5% CO2 atmosphere Cell proliferation was detected by measuring the level of BrdU incorporation into DNA. […] The plates were shaken for ten minutes at room temperature, and the resulting chemiluminescent signals were counted using a TRILUX scintillation counter.

SMILES	concentration at which activity was demonstrated
CCc1c(-c2ccc(O)cc2)nn(C2CCC2)c1-c1ccc(O)cc1 [4-[1-cyclobutyl-4-ethyl-5-(4-hydroxyphenyl)pyrazol-3-yl]phenol]	less than one hundred
CCc1c(-c2ccc(O)cc2)nn(-c2ccccc2C(F)(F)F)c1-c1ccc(O)cc1 [4-{4-ethyl-5-(4-hydroxyphenyl)-1-[2-(trifluoromethyl)phenyl]pyrazol-3-yl}phenol]	less than one hundred
